A short description of this series: Thioflavin T (ThT) fibrillation assay for physical stability. Format: physicochemical. As to conditions: 250 μM in 10 mM HEPES buffer, pH 7.5, 37° C., shaking 960 rpm. The source says:
The purpose of this assay was to assess the physical stability of the glucagon derivatives of the invention in aqueous solutions.
Low physical stability of a peptide may lead to amyloid fibril formation, which is observed as well-ordered, thread-like macromolecular structures in the sample, which eventually may lead to gel formation. This has traditionally been measured by visual inspection of the sample. However, that kind of measurement is very subjective and depending on the observer. Therefore, the application of a small molecule indicator probe is much more advantageous. Thioflavin T (ThT) is such a probe and has a distinct fluorescence signature when binding to fibrils [Naiki et al; Anal. Biochem. 1989 177 244-249; LeVine; Methods. Enzymol. 1999 309 274-284].
The time course for fibril formation can be described by a sigmoidal curve with the following expression [Nielsen et al; Biochemistry 2001 40 6036-6046]:
Here, as depicted in FIG. 1, F is the ThT fluorescence at the time t. The constant t0 is the time needed to reach 50% of maximum fluorescence. The two important parameters describing fibril formation are the lag-time calculated by t0−2τ and the apparent rate constant kapp 1/τ.
Samples were prepared freshly before each assay. Each sample composition is described in the legends. The pH of the sample was adjusted to the desired value using appropriate amounts of concentrated NaOH and HCl. Thioflavin T was added to the samples from a stock solution in H2O to a final concentration of 1 μM.
Sample aliquots of 200 μl (250 μM of the glucagon derivative/analogue in 10 mM HEPES buffer, pH 7.5) were placed in a 96 well microtiter plate (Packard OptiPlate™-96, white polystyrene). Usually, four or eight replica of each sample (corresponding to one test condition) were placed in one column of wells. The plate was sealed with Scotch Pad (Qiagen).
Incubation at given temperature, shaking and measurement of the ThT fluorescence emission were done in a Fluoroskan Ascent FL fluorescence plate reader (Thermo Labsystems). The temperature was set to 37° C. and the plate was incubated with orbital shaking adjusted to 960 rpm with an amplitude of 1 mm. Fluorescence measurement was done using excitation through a 444 nm filter and measurement of emission through a 485 nm filter.
Each run was initiated by incubating the plate at the assay temperature for 10 min. The plate was measured every 20 minutes for a desired period of time. Between each measurement, the plate was shaken and heated as described.
After completion of the ThT assay the four or eight replica of each sample was pooled and centrifuged at 20000 rpm for 30 minutes at 18° C. The supernatant was filtered through a 0.22 μm filter and an aliquot was transferred to a HPLC vial.
The concentration of peptide in the initial sample and in the filtered supernatant was determined by reverse phase HPLC using an appropriate standard as reference. The percentage fraction the concentration of the filtered sample constituted of the initial sample concentration was reported as the recovery.
The measurement points were saved in Microsoft Excel format for further processing and curve drawing and fitting was performed using GraphPad Prism. The background emission from ThT in the absence of fibrils was negligible. The data points were typically a mean of four or eight samples.
The data set may be fitted to Eq. (1).

Numbered stars: 1 amine (or outer) side, 2 acyl side, 3 side chain; on linkers, the order of the positions; unused ones are H or OH. Square brackets hold non-standard residues; d marks the D form. Side chains are listed from the residue outwards. Peptide text beside a SMILES is read from it. * marks the point of attachment. C18 diacid = O=C(O)CCCCCCCCCCCCCCCCC(=O)*; γGlu = O=C(O)[C@H](CCC(=O)[*:2])N[*:1]; AEEA = NCCOCCOCC(=O)O; Aib = CC(C)(N)C(=O)O

Take `CC(C)C[C@H](NC(=O)[C@H](Cc1ccc(O)cc1)NC(=O)[C@H](CCCCN)NC(=O)[C@H](CO)NC(=O)[C@H](CC(C)C)NC(=O)[C@H](CC(=O)O)NC(=O)[C@H](CO)NC(=O)[C@@H](NC(=O)[C@H](Cc1ccccc1)NC(=O)[C@@H](NC(=O)CNC(=O)[C@H](CCC(N)=O)NC(=O)C(C)(C)NC(=O)[C@@H](N)Cc1c[nH]cn1)[C@@H](C)O)[C@@H](C)O)C(=O)N[C@@H](CC(=O)O)C(=O)N[C@@H](CCCCNC(=O)CC[C@H](NC(=O)CC[C@H](NC(=O)COCCOCCNC(=O)COCCOCCNC(=O)CC[C@H](NC(=O)CCCCCCCCCCCCCCCCC(=O)O)C(=O)O)C(=O)O)C(=O)O)C(=O)N[C@@H](CCCCN)C(=O)N[C@@H](CCCNC(=N)N)C(=O)N[C@@H](C)C(=O)N[C@@H](CCC(N)=O)C(=O)N[C@@H](CCC(=O)O)C(=O)N[C@@H](Cc1ccccc1)C(=O)N[C@H](C(=O)N[C@@H](CCC(N)=O)C(=O)N[C@@H](Cc1c[nH]c2ccccc12)C(=O)N[C@@H](CC(C)C)C(=O)N[C@@H](CC(C)C)C(=O)N[C@@H](CC(N)=O)C(=O)N[C@H](C(N)=O)[C@@H](C)O)C(C)C` [Example 7, N^ε16-[(4S)-4-carboxy-4-[[(4S)-4-carboxy-4-[[2-[2-[2-[[2-[2-[2-[[(4S)-4-carboxy-4-(17-carboxyheptadecanoylamino)butanoyl]amino]ethoxy]ethoxy]acetyl]amino]ethoxy]ethoxy]acetyl]amino]butanoyl]amino]butanoyl]-[Aib2,Leu10,Lys16,Lys17,Glu21,Leu27]-Glucagon amide] (H-H[Aib]QGTFTSDLSKYLDK([γGlu-γGlu-AEEA-AEEA-γGlu-C18 diacid])KRAQEFVQWLLNT-NH2; N-terminus assumed): the THT assay Lag time (Ex. 76) stood at 45 h. Take `CC(C)C[C@H](NC(=O)[C@H](Cc1c[nH]c2ccccc12)NC(=O)[C@H](C)NC(=O)[C@@H](NC(=O)[C@H](Cc1ccccc1)NC(=O)[C@H](CCC(=O)O)NC(=O)[C@H](CCCNC(=N)N)NC(=O)[C@H](C)NC(=O)[C@H](C)NC(=O)[C@H](CCCNC(=N)N)NC(=O)[C@H](CCCCNC(=O)CC[C@H](NC(=O)CC[C@H](NC(=O)COCCOCCNC(=O)COCCOCCNC(=O)CC[C@H](NC(=O)CCCCCCCCCCCCCCCCC(=O)O)C(=O)O)C(=O)O)C(=O)O)NC(=O)[C@H](CC(=O)O)NC(=O)[C@H](CC(C)C)NC(=O)[C@H](Cc1ccc(O)cc1)NC(=O)[C@H](CCCCN)NC(=O)[C@H](CO)NC(=O)[C@H](CC(C)C)NC(=O)[C@H](CC(=O)O)NC(=O)[C@H](CO)NC(=O)[C@@H](NC(=O)[C@H](Cc1ccccc1)NC(=O)[C@@H](NC(=O)CNC(=O)[C@H](CCC(N)=O)NC(=O)C(C)(C)NC(=O)[C@@H](N)Cc1c[nH]cn1)[C@@H](C)O)[C@@H](C)O)C(C)C)C(=O)N[C@@H](CC(C)C)C(=O)N[C@@H](CC(N)=O)C(=O)N[C@H](C(N)=O)[C@@H](C)O` [Example 18, N^ε29-[(4S)-4-carboxy-4-[[(4S)-4-carboxy-4-[[2-[2-[2-[[2-[2-[2-[[(4S)-4-carboxy-4-(17-carboxyheptadecanoylamino)butanoyl]amino]ethoxy]ethoxy]acetyl]amino]ethoxy]ethoxy]acetyl]amino]butanoyl]amino]butanoyl]-[Aib2,Leu10,Lys16,Ala18,Arg20,Glu21,Ala-24,Leu27]-Glucagon amide] (H-H[Aib]QGTFTSDLSKYLDK([γGlu-γGlu-AEEA-AEEA-γGlu-C18 diacid])RAAREFVAWLLNT-NH2; N-terminus assumed): the THT assay Lag time (Ex. 76) turned out to be 45 h. As for `CC(C)C[C@H](NC(=O)[C@H](Cc1c[nH]c2ccccc12)NC(=O)[C@H](C)NC(=O)[C@@H](NC(=O)[C@H](Cc1ccccc1)NC(=O)[C@H](CCC(=O)O)NC(=O)[C@H](CCCNC(=N)N)NC(=O)[C@H](C)NC(=O)[C@H](CCCNC(=N)N)NC(=O)[C@H](CCCNC(=N)N)NC(=O)[C@H](CCCCNC(=O)CC[C@H](NC(=O)COCCOCCNC(=O)COCCOCCNC(=O)CC[C@H](NC(=O)CC[C@H](NC(=O)CCCCCCCCCCCCCCCCC(=O)O)C(=O)O)C(=O)O)C(=O)O)NC(=O)[C@H](CCC(=O)O)NC(=O)[C@H](CC(C)C)NC(=O)[C@H](Cc1ccc(O)cc1)NC(=O)[C@H](CCCCN)NC(=O)[C@H](CO)NC(=O)[C@H](CC(C)C)NC(=O)[C@H](CC(=O)O)NC(=O)[C@H](CO)NC(=O)[C@@H](NC(=O)[C@H](Cc1ccccc1)NC(=O)[C@@H](NC(=O)CNC(=O)[C@H](Cc1c[nH]cn1)NC(=O)C(C)(C)NC(=O)[C@@H](N)Cc1c[nH]cn1)[C@@H](C)O)[C@@H](C)O)C(C)C)C(=O)N[C@@H](CC(C)C)C(=O)N[C@@H](CO)C(=O)N[C@H](C(N)=O)[C@@H](C)O` [Example 32, N^ε16-[(4S)-4-carboxy-4-[[2-[2-[2-[[2-[2-[2-[[(4S)-4-carboxy-4-[[(4S)-4-carboxy-4-(17-carboxyheptadecanoylamino)butanoyl]amino]butanoyl]amino]ethoxy]ethoxy]acetyl]amino]ethoxy]ethoxy]acetyl]amino]butanoyl]-[Aib2,His3,Leu10,Glu15,Lys16,Arg20,Glu21,Ala24, Leu27,Ser28]-Glucagon amide] (H-H[Aib]HGTFTSDLSKYLEK([γGlu-AEEA-AEEA-γGlu-γGlu-C18 diacid])RRAREFVAWLLST-NH2; N-terminus assumed), the figure is 45 h.

These data come from patent US9474790B2, “Stable, protracted GLP-1/glucagon receptor co-agonists for medical use” (Novo Nordisk A/S, priority 2013, dated 2016).
